# What was measured:
# [1] = test system: NF-kB dependent genes cyclins D1 and D2, MMP1 and CD74; assay: Q-PCR analysis of NF-kB dependent genes in HaCaT and CEM cells; assay type: cell-based, human; conditions: single treatments, 1 uM
# Description: FIG. 14. Rapamycin enhances GR transrepression. A, B. Q-PCR analysis of MMP13 and CD74 expression in HaCaT cells (A) and cyclin D1 (CCND1) and cyclin D2 (CCND2) expression in CEM cells (B). Cells were pretreated with solvent or Rapa (1 uM)×6 hrs and treated with solvent (Control) or FA (1 uM) for 24 h. A, B. Q-PCR results were normalized to the expression of the housekeeping Rp127 gene, and presented as fold of change compared to control cells. The means+/−SD calculated for three individual RNA samples/condition. a—Statistically significant difference (P<0.05) compared to control; b—Statistically significant differences (P<0.05) compared to FA treatment. C. […] The means+SD were calculated for three individual wells/group in one representative experiment (out of three experiments). a—Statistically significant differences (P<0.05) in comparison to vehicle treatment; b—Statistically significant differences (P<0.05) in comparison to FA treatment.
# (§1) Total RNA from murine epidermis, whole human skin, and cell cultures was isolated with RiboPure kit (Ambion, Life Technologies, Grand Island, N.Y., USA). […] The gene expression was assessed using semi-quantitative two-step RT-PCR and quantitative Q-PCR. […] For semi-quantitative PCRs, Taq DNA polymerase (Promega) was used, and PCR products were separated on 1.5% agarose gel and visualized using automated imaging system (Bio-Rad, Hercules, Calif., USA). […]
# [2] = test system: croton oil-induced ear edema; assay: Croton oil-induced ear edema test; assay type: in vivo, mouse
# [3] = test system: FKBP51 and GILZ; assay: Q-PCR analysis of GR target genes FKBP51 and GILZ in HaCaT and CEM cells; assay type: cell-based, human; conditions: FA 1 uM 24 h
# Description: FIG. 13. Rapamycin inhibits GR transactivation. A, B. Q-PCR analysis of FKBP51 and GILZ expression in HaCaT (A) and CEM (B) cells. Cells were pretreated with solvent or Rapa (1 uM)×6 hrs and treated with solvent (Control) or FA (1 uM) for 24 h. A,B. Q-PCR results were normalized to the expression of the housekeeping Rp127 gene, and presented as fold of change compared to control cells. The means+/−SD calculated for three individual RNA samples/condition. a—Statistically significant difference (P<0.05) compared to control; b—Statistically significant differences (P<0.05) compared to FA treatment. C. Inhibitory effect of rapamycin on GRE.Luciferase reporter. […] The means+SD were calculated for three individual wells/group in one representative experiment (out of three experiments). a—Statistically significant differences (P<0.05) in comparison to vehicle treatment; b—Statistically significant differences (P<0.05) in comparison to FA treatment.
# as §1
# [4] = test system: CD34+ follicular SCs and p63-positive progenitors; assay: CD34+ follicular epithelial stem cells and p63+ progenitors in mouse skin (immunostaining); assay type: in vivo; conditions: chronic FA treatment
# Excerpt: Sections of formalin-fixed, paraffin-embedded skin and ORCs were stained with hematoxylin and eosin (H&E), Masson's trichrome to evaluate the effect on dermis and collagen fibers (Sheehan & Hrapchack, 1980), and with antibodies against BrdU (BD Biosciences, San Jose, Calif., USA), keratins 1, 5, and 10, loricrin (Covance, Princeton, N.J.), phospho-mTORSer2448 (Cell Signaling Technology, Inc., Danvers, Mass., USA), REDD1 (Proteintech Group, Inc, Chicago, Ill.), p63 (eBioscience, San Diego, Calif., USA), and CD34 (Abcam, Cambridge, Mass., USA).
# The numbers of BrdU+, p63+, and total number of basal keratinocytes were evaluated in 10 fields of view in each skin/ORC sample under the microscope. Number of BrdU+ and p63+ cells is presented as percent of total number of basal keratinocytes. The number of CD34+ hair follicles among 10 randomly selected hair follicles per skin sample was evaluated under the microscope.
# [5] = test system: GR; assay: GR nuclear translocation (immunofluorescence in HaCaT, Western blot of nuclear extracts in CEM); assay type: cell-based, human; conditions: HaCaT cells, 1 uM FA
# Description: FIG. 15. Rapamycin inhibits GR nuclear translocation and phosphorylation. A. GR nuclear translocation in HaCaT cells was determined by immunofluorescence as described in Materials and Methods. Cells on coverslips were pretreated with solvent (Control) or Rapamycin (1 uM×6 h) and treated with 1 uM FA for indicated time. B. GR nuclear translocation in CEM cells was determined by Western blot analysis of nuclear protein extracts. Membranes were probed with anti-HDAC-1 antibodies to verify equal protein loading and transfer. C, D. GR phosphorylation in HaCaT (C) and CEM (D) cells was determined by Western blot analysis of whole cell lysates. Membranes were probed with anti-GAPDH antibodies to verify equal protein loading and transfer.
# GR nuclear translocation was determined by immunofluorescence in HaCaT cells. Cells infected with pGIPZ and shREDD1 lentiviruses were selected with puromycin, seeded on coverslips. After the treatments, cells were fixed with 2% formaldehyde and permeabilized with acetone:methanol (1:1 v/v). After blocking, cells were incubated with primary rabbit anti-GR antibody (H-300, Santa Cruz Biotechnology, Santa Cruz, Calif., USA) followed by secondary anti-rabbit FITC-conjugated antibody (Jackson Immuno Research). Cell nuclei were counterstained with DAPI (Invitrogen, Life Technologies, Grand Island, N.Y., USA). […]
structure (smiles),measurement,setting,value
"CC1(C)O[C@@H]2C[C@H]3[C@@H]4C[C@H](F)C5=CC(=O)C=C[C@]5(C)[C@@]4(F)[C@@H](O)C[C@]3(C)[C@]2(C(=O)CO)O1 [FA, fluocinolone acetonide]","basal expression of NF-kB dependent genes cyclins D1 and D2, MMP1 and CD74",[1],inhibited
same,ear edema / ear weight,"[2]; croton oil 20 ul/ear, FA 1 ug/ear 1 h before CO, weighed 9 h after CO",reduced edema decreasing the ear weight to control level
same,anti-inflammatory effect (ear morphology and ear punch weight),"[2]; wild-type and REDD1 KO mice, FA 2 μg 1 h before croton oil, 9 h after CO",relieved this inflammatory response with equal potency
same,FKBP51 and GILZ expression,[3],strongly activated
same,decrease in number of p63+ basal keratinocytes,[4]; REDD1 KO mice,20%
same,hair follicles CD34 positive,[4]; REDD1 KO mice,40%
same,decrease in number of p63-positive progenitors in the basal layer of epidermis,[4]; wild-type mice,~40%
same,hair follicles CD34 positive,[4]; wild-type mice,5%
same,time GR remained in the nucleus,[5],2 to 24 h
same,time to GR nuclear import,[5],10 min

# From patent US9980976B2, “Use of REDD1 inhibitors to dissociate therapeutic and adverse atrophogenic effects of glucocorticoid receptor agonists” (Northwestern University, priority 2015, dated 2018)
